Results as given in publication PMC7272617 (Scientific Reports, 2020).
Converted amounts (≈) assume the structure as drawn. “And” between values parts separate entries of the source, which are not always exact repeats. Equal values may be shown once. Where a SMILES comes first, the peptide text is derived from it.

Tests used:
P. aeruginosa ATCC 27853 [1] = assay: Time-killing kinetics; type: cell-based, Pseudomonas aeruginosa
Experimental: The bacterial killing kinetics of PA-13 was assessed by evaluating the time course to kill suspensions of P. aeruginosa ATCC 27853 as described previously. […] Plates were incubated at 37 °C to determine the number of CFU after 24 h; the assays were performed in triplicate.

P. aeruginosa ATCC 27853 [2] = assay: Membrane permeability (PI) and depolarization (BOX), flow cytometry; type: cell-based, Pseudomonas aeruginosa; conditions: for permeabilized and depolarized cells: 0.5 × MIC; for cell population BOX+PI- / cell population BOX-PI+ / cell population BOX-PI- / permeabilized and depolarized cells (BOX+PI+): 1 × MIC; for permeabilized and depolarized cells (BOX+PI+): 37 °C, triplicate
Experimental: Their outer and inner membranes provide important protection for Gram-negative bacteria. To assess membrane permeability and depolarization induced by PA-13, the DNA intercalating dyes propidium iodide (PI) and bis-(1,3-dibutylbarbituric acid) trimethine oxonol (BOX) were used as previously described. The fluorescence conferred by these dyes is generally associated with the loss of membrane integrity and potential, respectively.
Briefly, P. aeruginosa ATCC 27853 was cultured to mid-logarithmic phase and harvested by centrifugation at 2,000 × g for 5 min. The bacterial cells were washed thrice with PBS and diluted to 10^7 CFU/ml in 50 ml of PBS. […] Bacterial pellets were harvested and washed with PBS by centrifugation at 10,000 × g for 10 min. […] Untreated bacterial cells (no peptide) served as a negative control, whereas bacterial cells treated with melittin served as a positive control. Data was recorded using a flow cytometer (CytoFlex, Beckman Coulter) at a laser excitation wavelength of 488 nm. Forward scatter (FS), side scatter (SS), green fluorescence (530/30 nm) from BOX and red fluorescence (585/42 nm) emitted by PI were collected using logarithmic scales. 25,000 cells, defined according to their scatter parameters, were counted in each sample. The experiments were performed in triplicate and the data was analyzed using Kaluza software.

LPS from E. coli O111:B4 = assay: LPS binding, chromogenic limulus amebocyte lysate (LAL) assay; set-up: species or system Escherichia coli; conditions: 1 EU/mL LPS, 1 × to 32 × MIC, 37 °C, 30 min; result in words
Experimental: The ability of PA-13 to bind LPS was assessed using a quantitative, chromogenic limulus amebocyte lysate (LAL) according to the manufacturer’s instructions (Thermo Scientific). The LAL test is a sensitive indicator of the presence of free or non-neutralized endotoxin[30]. Stock solutions of peptide were prepared in endotoxin-free water provided with the kit. […] LAL reagent was added and incubated for 10 min at 37 °C, followed by addition of a colorless substrate and incubation for a further 6 min. The reaction was stopped with 25% (vol/vol) glacial acetic acid and the release of p-nitroaniline followed by absorbance at 405 nm. Endotoxin-free water served as a negative control (blank) and was considered 0% LPS binding. After blank subtraction, the percentage of LPS binding was calculated according to the following equation: %LPSbinding=(ODUntreated-ODTreated)/ODUntreated×100

[3] = system: Vibrio cholera O1 Inaba DMST 16261; conditions: MHB, 37 °C, 24 h
[4] = system: Enterococcus faecalis ATCC 29212; conditions: ATCC 29212, 24 h
[5] = system: MDR P. aeruginosa clinical isolate No.2; conditions: MDR clinical isolate No.2, 24 h
[6] = system: MDR P. aeruginosa clinical isolate No.12
[7] = system: MDR P. aeruginosa clinical isolate No.13; conditions: MDR clinical isolate No.13, 24 h

CC[C@H](C)[C@H](NC(=O)[C@H](CCCNC(=N)N)NC(=O)[C@H](CCCCN)NC(=O)[C@H](C)NC(=O)[C@@H](NC(=O)[C@@H](N)CCCCN)[C@@H](C)CC)C(=O)N[C@@H](Cc1c[nH]c2ccccc12)C(=O)N[C@@H](CCCCN)C(=O)N[C@H](C(=O)N[C@@H](CC(C)C)C(=O)N[C@@H](CCCNC(=N)N)C(=O)N[C@@H](CCCNC(=N)N)C(=O)N[C@@H](CCCNC(=N)N)C(N)=O)[C@@H](C)CC [PA-13] (H-KIAKRIWKILRRR-NH2; N-terminus assumed)
P. aeruginosa count within 30 min at MIC (P. aeruginosa ATCC 27853 [1]): approximately 10^4 CFU/ml
time to complete killing (no regrowth) (P. aeruginosa ATCC 27853 [1]; at MBC): ≤ 4 h
time to eradicate most bacteria (P. aeruginosa ATCC 27853 [1]; at MIC (and MBC)): ≤ 2 h
regrowth after 24 h treatment (P. aeruginosa ATCC 27853 [1]; at MIC, result in words): regrowth was observed
P. aeruginosa count within 30 min at MBC (P. aeruginosa ATCC 27853 [1]; start 10^7 CFU/ml, MBC (7.81 μg/ml), MHB, 37 °C): ~10^2 CFU/ml
permeabilized and depolarized cells (P. aeruginosa ATCC 27853 [2]; 15 min): 72.75 ± 1.08%
permeabilized and depolarized cells (P. aeruginosa ATCC 27853 [2]; 30 min): 75.30 ± 2.68%
permeabilized and depolarized cells (P. aeruginosa ATCC 27853 [2]; 60 min): 81.66 ± 3.35%
cell population BOX+PI- (P. aeruginosa ATCC 27853 [2]; 15 min): 3.55%
cell population BOX-PI+ (P. aeruginosa ATCC 27853 [2]; 15 min): 7.74%
cell population BOX-PI- (P. aeruginosa ATCC 27853 [2]; 15 min): 0.68%
permeabilized and depolarized cells (BOX+PI+) (P. aeruginosa ATCC 27853 [2]; 15 min): 88.03 ± 3.02% and 88.03%
cell population BOX+PI- (P. aeruginosa ATCC 27853 [2]; 30 min): 5.74%
cell population BOX-PI+ (P. aeruginosa ATCC 27853 [2]; 30 min): 3.61%
cell population BOX-PI- (P. aeruginosa ATCC 27853 [2]; 30 min): 0.96%
permeabilized and depolarized cells (BOX+PI+) (P. aeruginosa ATCC 27853 [2]; 30 min): 89.69 ± 5.25% and 89.69%
cell population BOX+PI- (P. aeruginosa ATCC 27853 [2]; 60 min): 6.25%
cell population BOX-PI+ (P. aeruginosa ATCC 27853 [2]; 60 min): 1.05%
cell population BOX-PI- (P. aeruginosa ATCC 27853 [2]; 60 min): 0.62%
permeabilized and depolarized cells (BOX+PI+) (P. aeruginosa ATCC 27853 [2]; 60 min): 92.07 ± 5.15% and 92.07%
LPS binding activity (LPS from E. coli O111:B4): dose-dependent LPS binding activity
MIC [3]: 31.25 µg/mL (≈ 18 µM)
MIC [4]: 250 µg/mL (≈ 144 µM)
MIC [5]: 7.81 µg/mL (≈ 4.5 µM)
MIC [6]: 3.91 µg/mL (≈ 2.25 µM)
MIC [7]: 15.63 µg/mL (≈ 9 µM)
